# Reference: patent publication US20170000132A1, “BENZOXABOROLE FUNGICIDES” (SYNGENTA PARTICIPATIONS AG, priority 2013, published 2017)
# Key:
# Puccinia recondita = Puccinia recondita / wheat plants, spray chamber; assay type: in vivo; details: 20 ppm; 1 week old wheat plants cv. Arina, sprayed 2 days before inoculation, assessed 10 days after inoculation
# Protocol: Fungicidal Activity Against Puccinia recondita/Wheat 1 week old wheat plants cv. Arina were treated with the formulated test compound in a spray chamber. Two days after application wheat plants were inoculated by spraying a spore suspension (1×105 uredospores/ml) on the test plants. After an incubation period of 1 day at […] and 95% r. h. plants were kept for 9 days at […] and 60% r.h. in a greenhouse. The disease incidence was assessed 10 days after inoculation.
# [1] = test system: Giberella zeae (Fusarium graminearum); assay type: in vivo; details: 200 ppm; wheat spikelets, preventative, assessed 6 dpi; compared to untreated control
# [2] = test system: Monographella nivale (Microdochium nivale); experiment: Monographella nivale / wheat pouch test with infected seeds; assay type: in vivo, M. nivale; details: 60 ppm; infected wheat seeds cv. Arina in pouch, 4 weeks after sowing; compared to untreated control
# Protocol: Fungicidal Activity Against Monographella nivale (Microdochium nivale)/Wheat
# Formulated test compound is applied into a pouch which was previously equipped with a filter paper. After the application wheat seeds cv. Arina infected with M. nivale are sown into the upper fault of the filter paper. The pouches are then incubated for 7 days in the dark at 7° C./5° C. (day/night) and 80% r. h. After 1 week light is supplied at the same temperature cycle. Another two weeks later plants were transferred to 17° C./16° C. (day/night) and 80% r. H. The disease incidence is assessed 4 weeks after sowing.
# Phytophthora infestans = assay type: in vivo; details: 200 ppm; tomato leaf disks, preventative; compared to untreated control
smiles,measurement,setting,value
"OB1OCc2cc(Cl)c(C=NOCC=C(Cl)Cl)cc21 (single isomer, unassigned) [Compound 50]",disease control (disease incidence),Puccinia recondita,at least 80%
"COC(=O)Cc1ccccc1CON=Cc1cc2c(cc1Cl)COB2O (single isomer, unassigned) [Compound 59]",disease control,[1],at least 80%
"CCOC(=O)CNN=Cc1cc2c(cc1Cl)COB2O (single isomer, unassigned) [Compound 70]",disease control (disease incidence),[2],at least 80%
"CNC(=S)NN=Cc1cc(Cl)cc2c1B(O)OC2 (single isomer, unassigned) [Compound 224]",disease control,Phytophthora infestans,at least 80%
